The source of these data is US8455522B2, “Benzoxazolone derivatives as aldosterone synthase inhibitors” (Novartis AG, priority 2009, dated 2013).

Molecules are shown by their SMILES.

The target in one experiment is T1, aldosterone synthase (Homo sapiens, UniProt P19099).
T1 construct: host or cells: NCI-H295R
T1 sequence (P19099 25-503): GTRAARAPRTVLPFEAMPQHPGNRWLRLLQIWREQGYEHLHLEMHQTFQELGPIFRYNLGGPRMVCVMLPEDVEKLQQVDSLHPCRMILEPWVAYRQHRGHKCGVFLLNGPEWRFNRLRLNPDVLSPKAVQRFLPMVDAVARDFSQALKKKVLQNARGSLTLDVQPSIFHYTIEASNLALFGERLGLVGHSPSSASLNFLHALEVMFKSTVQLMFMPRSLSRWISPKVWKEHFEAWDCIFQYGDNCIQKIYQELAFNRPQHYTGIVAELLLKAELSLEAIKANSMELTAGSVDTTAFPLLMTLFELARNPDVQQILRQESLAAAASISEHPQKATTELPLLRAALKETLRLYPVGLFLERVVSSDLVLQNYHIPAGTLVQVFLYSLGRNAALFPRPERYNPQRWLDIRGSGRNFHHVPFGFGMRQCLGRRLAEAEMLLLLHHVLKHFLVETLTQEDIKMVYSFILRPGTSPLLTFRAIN
The experiment in a line: Aldosterone cell secretion in NCI-H295R cells (aldosterone synthase inhibition, SPA). It counts as cell-based. Conditions: human adrenocortical carcinoma NCI-H295R cells, 1 μM Ang II, 24 hr. An excerpt: In particular, the aldosterone synthase inhibitory activities in vitro can be determined by the following assay.
Human adrenocortical carcinoma NCI-H295R cell line was obtained from American Type Culture Collection (Manassas, Va.). Insulin/transferrin/selenium (ITS)-A supplement (100×). DMEM/F-12, antibiotic/antimycotic (100×), and fetal bovine serum (FBS) were purchased from Invitrogen (Carlsbad, Calif.). Anti-mouse PVT scintillation proximity assay (SPA) beads and NBS 96-well plates were obtained from GE Health Sciences (Piscataway, N.J.) and Corning (Acton, Mass.), respectively. Solid black 96-well flat bottom plates were purchased from Costar (Corning, N.Y.). Aldosterone and angiotensin (Ang II) were purchased from Sigma (St. Louis, Mo.). D-[1,2,6,7-^3H(N)]aldosterone was acquired from PerkinElmer (Boston, Mass.). Nu-serum was a product of BD Biosciences (Franklin Lakes, N.J.). The NADPH regenerating system, dibenzylfluorescein (DBF), and human aromatase Supersomes® were obtained from Gentest (Woburn, Mass.).
For in vitro measurement of aldosterone activity, human adrenocortical carcinoma NCI-H295R cells are seeded in NBS 96-well plates at a density of 25,000 cells/well in 100 μl of a growth medium containing DMEM/F12 supplemented with 10% FCS, 2.5% Nu-serum, 1 μg ITS/ml, and 1× antibiotic/antimycotic. The medium is changed after culturing for 3 days at 37° C. under an atmosphere of 5% CO2/95% air. On the following day, cells are rinsed with 100 μl of phosphate-buffered saline (PBS) and incubated with 100 μl of treatment medium containing 1 μM Ang II and a compound at different concentrations in quadruplicate wells at 37° C. for 24 hr. At the end of incubation, 50 μl of medium is withdrawn from each well for measurement of aldosterone production by an SPA using mouse anti-aldosterone monoclonal antibodies.
Measurement of aldosterone activity can also be performed using a 96-well plate format. Each test sample is incubated with 0.02 μCi of D-[1,2,6,7-^3H(N)]aldosterone and 0.3 μg of anti-aldosterone antibody in PBS containing 0.1% Triton X-100, 0.1% bovine serum albumin, and 12% glycerol in a total volume of 200 μl at room temperature for 1 hr. Anti-mouse PVT SPA beads (50 μl) are then added to each well and incubated overnight at room temperature prior to counting in a Microbeta plate counter. The amount of aldosterone in each sample is calculated by comparing with a standard curve generated using known quantities of the hormone.
(§1) Inhibition of the release of certain steroids can be used as a measure of the respective enzyme inhibition by the added test compounds. The dose-dependent inhibition of enzymic activity by a compound is calculated by means of an inhibition plot which is characterized by an IC50.
The IC50 values for active test compounds are ascertained by a simple linear regression analysis in order to construct inhibition plots without data weighting. The inhibition plot is calculated by fitting a 4-parameter logistic function to the raw data points using the least squares method. The equation of the 4-parameter logistic function is calculated as follows: Y=(d−a)/((1+(x/c)b))+a, where: a=minimum data level, b=gradient, I […], d=maximum data level, x=inhibitor concentration.
The inhibition activity of aldosterone production can also be expressed in percentage inhibition (% inhibition) at a given concentration (e.g. % inhibition at 1 μM), which is the aldosterone level when the cell is treated with the given concentration of a compound of this invention (e.g. concentration of 1 μM) versus the aldosterone excretion when cell is free of the compound of the invention: % inhibition aldosterone production=[(Y−X)/Y]×100 wherein X is the level of aldosterone when the cell is treated with a compound of Formula I; and Y is the level of aldosterone when the cell is free of compound of Formula I.

For a further experiment, the target named is T2, CYP11B1 (Homo sapiens, UniProt P15538).
T2 construct: the NCI-H295R cells have Cyp11 B1 (steroid 11 β-hydroxylase); host or cells: NCI-H295R
T2 sequence (P15538 25-503): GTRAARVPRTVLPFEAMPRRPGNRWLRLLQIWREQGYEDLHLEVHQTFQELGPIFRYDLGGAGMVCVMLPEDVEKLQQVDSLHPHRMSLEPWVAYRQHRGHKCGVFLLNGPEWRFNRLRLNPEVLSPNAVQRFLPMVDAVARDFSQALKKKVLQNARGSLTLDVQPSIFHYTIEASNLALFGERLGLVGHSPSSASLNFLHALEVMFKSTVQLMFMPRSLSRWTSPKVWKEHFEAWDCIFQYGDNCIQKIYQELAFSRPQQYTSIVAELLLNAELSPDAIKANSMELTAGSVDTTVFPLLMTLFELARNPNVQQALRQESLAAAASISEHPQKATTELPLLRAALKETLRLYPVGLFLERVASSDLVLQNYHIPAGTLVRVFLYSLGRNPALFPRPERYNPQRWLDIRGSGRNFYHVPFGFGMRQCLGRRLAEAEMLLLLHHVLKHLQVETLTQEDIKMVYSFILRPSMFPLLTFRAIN
Briefly: Cortisol cell secretion in NCI-H295R cells (CYP11B1 activity). It counts as cell-based. Conditions: compound at 1 μM; for inhibition at 1 µM: NCI-H295R, read-out: Cortisol cell secretion (% Inhib. @ 1 μM).
From the text: The in vitro inhibitory activities for CYP1B1 can be determined by the following assay.
The cell line NCI-H295R was originally isolated from an adrenocortical carcinoma and has been characterized in the literature through the stimulable secretion of steroid hormones and the presence of the enzymes essential for steroidogenesis. Thus, the NCI-H295R cells have Cyp11 B1 (steroid 11 β-hydroxylase). The cells show the physiological property of zonally undifferentiated human foetal adrenocortical cells which, however, have the capacity to produce the steroid hormones which are formed in the three, phenotypically distinguishable zones in the adult adrenal cortex.
The NCI-H295R cells (American Type Culture Collection, ATCC, Rockville, Md., USA) are grown in Dulbeoco's Modified Eagle'Ham F-12 Medium (DME/F12), which has been supplemented with Ulroser SF Serum (Soprachem, Geigy-Saint-Christophe, France), insulin, transferrin, selenite (I-T-S, Becton Dickinson Biosiences, Franklin lakes. NJ, USA) and antibiotics in 75 cm^2 cell culture vessels at 37° C. and in a 95% air-5% carbon dioxide atmosphere. The cells are subsequently transferred for colony formation into a 24-well incubation vessel. They are cultivated there in DME/F12 medium, which is now supplemented with 0.1% bovine serum instead of Ultroser SF for 24 hours. The experiment is initiated by cultivating the cells in DME/F12 medium which is supplemented with 0.1% bovine serum albumin and test compound, in the presence or absence of cell stimulants, for 72 hours. The test substance is added in a concentration range from 0.2 nanomolar to […]. Cell stimulants which can be used are angiotensin II (1 D or 100 nanomolar), potassium ions (16 millimolar), forskolin (10 micromolar) or a combination of two stimulants.
The excretion of aldosterone, cortisol, corticosterone and estradiol/estrone into the culture medium can be detected and quantified by commercially available, specific monoclonal antibodies in radioimmunoassays in accordance with the manufacturer's instructions.
as §1
The inhibition activity of cortisol production (CYP11B1 activity) can also be expressed in percentage inhibition (% inhibition) at a given concentration (e.g. % inhibition at 1 μM), which is the cortisol level when cell is treated with the given concentration of a compound of the invention (e.g. concentration of 1 μM) versus the cortisol excretion when cell is free of the compound of the invention. % inhibition cortisol production=[(Y′−X′)/Y′]×100 wherein X′ is the level of cortisol when the cell is treated with a compound of Formula I; and Y′ is the level of cortisol when the cell is free of compound of Formula I.

Usually IC50 stands for the concentration that inhibits the measured activity by half.

On to `CC(O)c1ccncc1-c1ccc2oc(=O)n(C)c2c1` (single isomer, unassigned) [Example 7 Enantiomer 1, 5-(4-(1-hydroxyethyl)pyridin-3-yl)-3-methylbenzo[d]oxazol-2(3H)-one], for which, at aldosterone synthase, the midpoint of inhibition, the IC50, lay at 437 nM.
With `CC(O)c1ccncc1-c1ccc2oc(=O)n(C)c2c1` (single isomer, unassigned) [Example 7 Enantiomer 2, 5-(4-(1-hydroxyethyl)pyridin-3-yl)-3-methylbenzo[d]oxazol-2(3H)-one], the IC50 at aldosterone synthase stood at 452 nM.
Turning to `Cn1c(=O)oc2ccc(-c3cnccc3C(O)c3ccc(F)cc3)cc21` (single isomer, unassigned) [Example 8 Enantiomer 1, 5-(4-((4-fluorophenyl)(hydroxy)methyl)pyridin-3-yl)-3-methylbenzo[d]oxazol-2(3H)-one], 53 nM corresponded to half-maximal inhibition against aldosterone synthase (IC50). Moreover, the inhibition at 1 µM on CYP11B1 came to 77%.
`Cn1c(=O)oc2ccc(-c3cnccc3C(O)c3ccc(F)cc3)cc21` (single isomer, unassigned) [Example 8 Enantiomer 2, 5-(4-((4-fluorophenyl)(hydroxy)methyl)pyridin-3-yl)-3-methylbenzo[d]oxazol-2(3H)-one] displayed an IC50 against aldosterone synthase of 66 nM. Also, the “Cortisol cell secretion (% Inhib. @ 1 μM)” value on CYP11B1 (1 µM) was 73%.
Turning to `Cn1c(=O)oc2ccc(-c3cncc(C(O)C4CC4)c3)cc21` (single isomer, unassigned) [Example 13 Enantiomer 1, 5-(5-(cyclopropyl(hydroxy)methyl)pyridin-3-yl)-3-methylbenzo[d]oxazol-2(3H)-one], the 50% inhibitory concentration (IC50) against aldosterone synthase is 28 nM. In addition, at CYP11B1, the inhibition at 1 µM was 64%.
For `Cn1c(=O)oc2ccc(-c3cncc(C(O)C4CC4)c3)cc21` (single isomer, unassigned) [Example 13 Enantiomer 2, 5-(5-(cyclopropyl(hydroxy)methyl)pyridin-3-yl)-3-methylbenzo[d]oxazol-2(3H)-one], on aldosterone synthase, half-maximal inhibition (IC50) required 30 nM. Also, the “Cortisol cell secretion (% Inhib. @ 1 μM)” value at CYP11B1 amounted to 64%.
Consider `Cn1c(=O)oc2ccc(-c3cncc(C(N)C(F)(F)F)c3)cc21` (single isomer, unassigned) [Example 29 Enantiomer 1, 5-(5-(1-amino-2,2,2-trifluoroethyl)pyridin-3-yl)-3-methylbenzo[d]oxazol-2(3H)-one], for which half-maximal inhibition on aldosterone synthase (IC50) required 47 nM. Further, the inhibition at 1 µM at CYP11B1 amounted to 57%.
On to `Cn1c(=O)oc2ccc(-c3cncc(C(N)C(F)(F)F)c3)cc21` (single isomer, unassigned) [Example 29 Enantiomer 2, 5-(5-(1-amino-2,2,2-trifluoroethyl)pyridin-3-yl)-3-methylbenzo[d]oxazol-2(3H)-one], for which the midpoint of inhibition on aldosterone synthase, the IC50, lay at 34 nM. At CYP11B1, the “Cortisol cell secretion (% Inhib. @ 1 μM)” value came out at 57%.
In turn, `Cn1c(=O)oc2ccc(-c3cccnc3)cc21` [Example 1, 3-Methyl-5-pyridin-3-yl-3H-benzooxazol-2-one] showed an IC50 at aldosterone synthase of 17.8 nM. Besides, the inhibition at 1 µM on CYP11B1 was determined as 58%.
The matching figures for `Cc1ccncc1-c1ccc2oc(=O)n(C)c2c1` [Example 2, 3-Methyl-5-(4-methyl-pyridin-3-yl)-3H-benzooxazol-2-one]: 4 nM and 82%.
On the same counts, the results for `COc1cncc(-c2ccc3oc(=O)n(C)c3c2)c1` [Example 4, 5-(5-methoxypyridin-3-yl)-3-methylbenzo[d]oxazol-2(3H)-one] are 18 nM and 77%.
The matching figures for `CCN(Cc1ccccc1)Cc1cncc(-c2ccc3oc(=O)n(C)c3c2)c1` [Example 10, 5-{5-[(Benzyl-ethyl-amino)-methyl]-pyridin-3-yl}-3-methyl-3H-benzooxazol-2-one]: 17 nM and 96%.
Compound `Cn1c(=O)oc2cc(F)c(-c3cncc(CO)c3)cc21` [Example 11] returned an IC50 against aldosterone synthase of 128 nM. Besides, the inhibition at 1 µM on CYP11B1 came to 39%.
On the same counts, the results for `Cn1c(=O)oc2ccc(-c3cncc(C(C)(C)O)c3)cc21` [Example 14, 5-(5-(2-hydroxypropan-2-yl)pyridin-3-yl)-3-methylbenzo[d]oxazol-2(3H)-one] are 3 nM and 89%.
Compound `Cn1c(=O)oc2ccc(-c3cncc(CO)c3)cc21` [Example 15, 5-(5-(hydroxymethyl)pyridin-3-yl)-3-methylbenzo[d]oxazol-2(3H)-one] gave an IC50 against aldosterone synthase of 21 nM. Also, the inhibition at 1 µM at CYP11B1 came out at 83%.
